From patent US12060388B2, “Cell-penetrating peptides and methods of use thereof” (priority 2018, dated 2024)

System: HPV18 PsV
Assay: Peptide inhibition of HPV18 PsV infection of HeLa-S3 cells, flow cytometry for HcRed
Type: cell-based
Conditions: 14 μM peptide, MOI of one, 48 h.p.i.
Excerpt: FIG. 18A (top) depicts sequences of L2 peptides. […] Amino acid substitutions in the CPP or RBS mutant peptides are shown in orange and blue, respectively. Bottom: RBS and flanking sequences of indicated HPV L2 proteins or DMT1-II. FIG. 18B depicts an inhibitory dose-response curve for P16/16 peptide. 5×10^4 HeLa-S3 in 24-well plates were pretreated with various concentrations of P16/16 for one hour prior to infection with HPV pseudovirus (PsV) at multiplicity of infection (MOI) of 1. Peptide was left in the medium for the duration of the experiment. Cells were assessed by flow cytometry to determine the fraction of cells expressing reporter protein HcRed at 48 hours post-infection (h.p.i.). […] Forty-eight h.p.i., cells were assessed by flow cytometry to determine fraction of cells expressing reporter protein HcRed. […] HaCaT keratinocytes were infected at MOI of 1 with HPV16 PsV in the presence and absence of 14 μM P16/16, and infectivity was assessed 48 h.p.i. by flow cytometry for HcRed fluorescence. […] Successful infection by HPV16 and HPV16 PsV was assessed by quantitative reverse transcription-PCR (qRT-PCR) for expression of HPV early region and HcRed mRNA, respectively, and normalized to infection by the cognate virus in the absence of peptide. Background signal determined with non-cognate primers was <0.01%. […]

Question: `CC[C@H](C)[C@H](NC(=O)[C@@H](NC(=O)[C@H](Cc1ccc(O)cc1)NC(=O)[C@H](CCC(N)=O)NC(=O)[C@@H]1CCCN1C(=O)[C@H](CO)NC(=O)[C@@H](N)CS)[C@@H](C)O)C(=O)N[C@H](C(=O)N[C@@H](C)C(=O)N[C@@H](CC(=O)O)C(=O)N[C@@H](C)C(=O)NCC(=O)N[C@@H](CC(=O)O)C(=O)N[C@@H](Cc1ccccc1)C(=O)N[C@@H](Cc1ccc(O)cc1)C(=O)N[C@@H](CC(C)C)C(=O)N[C@@H](Cc1c[nH]cn1)C(=O)N1CCC[C@H]1C(=O)N[C@@H](CO)C(=O)N[C@@H](Cc1ccc(O)cc1)C(=O)N[C@@H](Cc1ccc(O)cc1)C(=O)N[C@@H](CCSC)C(=O)N[C@@H](CC(C)C)C(=O)N[C@@H](CCCNC(=N)N)C(=O)N[C@@H](CCCCN)C(=O)N[C@@H](CCCNC(=N)N)C(=O)N[C@@H](CCCNC(=N)N)C(=O)N[C@@H](CCCCN)C(=O)N[C@@H](CCCNC(=N)N)C(=O)O)[C@@H](C)CC` [P16/16] was tested. Which “inhibition of HPV18 PsV infection” value did it give?
Answer: potently inhibited infection
